For this test, the target named is T1, recombinant human DGAT1 (Homo sapiens, UniProt O75907).
T1 construct: made in house; host or cells: Sf9 insect cells (baculovirus), used as a membrane preparation
T1 sequence (O75907 1-488): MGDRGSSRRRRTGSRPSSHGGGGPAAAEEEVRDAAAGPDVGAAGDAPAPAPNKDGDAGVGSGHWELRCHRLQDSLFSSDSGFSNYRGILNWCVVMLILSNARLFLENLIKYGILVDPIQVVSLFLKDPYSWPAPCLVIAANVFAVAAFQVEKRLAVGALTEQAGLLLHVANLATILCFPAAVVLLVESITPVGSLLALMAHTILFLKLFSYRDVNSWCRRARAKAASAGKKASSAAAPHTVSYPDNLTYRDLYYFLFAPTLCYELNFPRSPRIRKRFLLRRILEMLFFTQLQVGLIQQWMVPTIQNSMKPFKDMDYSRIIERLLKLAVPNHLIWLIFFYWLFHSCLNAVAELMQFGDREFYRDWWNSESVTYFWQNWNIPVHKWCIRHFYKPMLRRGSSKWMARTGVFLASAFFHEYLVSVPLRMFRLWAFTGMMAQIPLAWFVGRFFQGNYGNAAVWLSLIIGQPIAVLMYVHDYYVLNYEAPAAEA
The test can be described thus: DGAT1 enzyme assay (SPA, membranes from Sf9 insect cells). The format is biochemical. The settings on record: 300 ng recombinant human DGAT1 membrane (Sf9), 25 μM 2-monooleoylglycerol, 25 μM [3H]-stearoyl-CoA, pH 7.4, 30 min, 25° C.; read-out: DGAT1 Enzyme Assay IC50 (inhibition). The procedure:
DGAT1 enzyme assays were conducted using membranes isolated from Sf9 insect cells expressing the recombinant human DGAT1 cDNA. The assays were conducted in 384-well plates with total volume of 25 μl at 25° C. In each assay, 300 ng of recombinant human DGAT1 membrane was incubated with 25 μM of 2-monooleoylglycerol and 25 μM of [^3H]-stearoyl-CoA in 100 mM potassium phosphate (pH 7.4) for 30 min with various concentrations of compounds delivered in DMSO. The assay was terminated by the addition of 30 μl of Stopping Solution [50 mM HEPES, 5 mg/mL Yttrium Oxide (YOX) Polylysine SPA beads, 3.33 mg/mL Fraction V BSA, 200 μM Mercuric chloride]. The signal was measured using LEADSEEKER^SM for 5 minutes. To calculate the degree of inhibition, the zero level of enzyme activity (blank) was defined by the above assay using Sf9 cell membrane uninfected with baculovirus and the 100% level of DGAT1 enzyme activity was defined by human DGAT1 assay with the vehicle DMSO. The IC50 values of inhibitors were determined by Excel-fit.
Consider `CC(C)[C@H](NC(=O)c1nccn2c(-c3ccc(Nc4nc5ccc(Cl)cc5s4)cc3)nnc12)C(=O)O` [Example 63, (S)-2-(3-(4-(6-Chlorobenzothiazol-2-ylamino)phenyl)-[1,2,4]triazolo[4,3-a]pyrazine-8-carboxamido)-3-methylbutanoic acid], for which the IC50 worked out at 7 nM.

As to `O=C(O)CCNC(=O)c1cccn2c(-c3ccc(NC(=O)Nc4ccccc4OC(F)(F)F)cc3)nnc12` [Example 6], the IC50 was 150 nM.

With `CC(C)[C@H](NC(=O)c1cccn2c(-c3ccc(Nc4nc5ccc(Cl)cc5s4)cc3)nnc12)C(=O)O` [Example 25, (S)-2-(3-(4-(6-Chlorobenzo[d]thiazol-2-ylamino)phenyl)-[1,2,4-]triazolo[4,3-a]pyridine-8-carboxamido)-3-methylbutanoic acid], the IC50 came out at 7 nM.

With `O=C(O)CNC(=O)c1cccn2c(-c3ccc(Nc4nccs4)cc3)nnc12` [Example 53], the IC50 came out at 23000 nM.

For `COC(=O)Nc1ccc(-c2nnc3c(C(=O)N4CCC[C@H]4C(=O)O)cccn23)cc1` [Example 22, (S)-1-(3-(4-(Methoxycarbonylamino)phenyl)-[1,2,4]triazolo[4,3-a]pyridine-8-carbonyl)pyrrolidine-2-carboxylic acid], the IC50 was 31000 nM.

For `C[C@@H](NC(=O)c1cccn2c(-c3ccc(Nc4nccs4)cc3)nnc12)C(=O)O` [Example 47], the IC50 amounted to 28000 nM.

With `O=C(Nc1ccc(-c2nnc3c(C(=O)N[C@@H](Cc4ccccc4)C(=O)O)cccn23)cc1)Nc1ccccc1OC(F)(F)F` [Example 11], the IC50 was 150 nM.

Consider `CC[C@H](NC(=O)c1cccn2c(-c3ccc(Nc4nc5ccc(Cl)cc5s4)cc3)nnc12)C(=O)O` [Example 41], for which the IC50 was found to be 5 nM.

With `CC[C@H](C)[C@H](NC(=O)c1cccn2c(-c3ccc(NC(=O)Nc4ccccc4OC(F)(F)F)cc3)nnc12)C(=O)O` [Example 16], the IC50 stood at 3 nM.

`O=C(O)CNC(=O)c1cccn2c(-c3ccc(NC(=O)Nc4ccccc4OC(F)(F)F)cc3)nnc12` [Example 5]: the IC50 came to 170 nM.

Turning to `CCC(=O)Nc1ccc(-c2nnc3c(C(=O)N[C@H](C(=O)O)C(C)C)cccn23)cc1` [Example 23, (S)-3-Methyl-2-(3-(4-propionamidophenyl)-[1,2,4]triazolo[4,3-a]pyridine-8-carboxamido)butanoic acid], the IC50 came out at 43000 nM.

On to `O=C(Nc1ccc(-c2nnc3c(C(=O)N[C@H](C(=O)O)C4CCCCC4)cccn23)cc1)Nc1ccccc1OC(F)(F)F` [Example 14], for which the IC50 is 180 nM.

These data come from patent publication US8324241B2, “Triazolo compounds useful as DGAT1 inhibitors” (Bristol-Myers Squibb Company, priority 2008, dated 2012).
